# From patent publication US10780090B2, “Heteroaryl compounds useful as inhibitors of SUMO activating enzyme” (Millennium Pharmaceuticals, Inc., priority 2014, dated 2020)
# Target: recombinant human SAE enzyme (Homo sapiens (Human), UniProt Q9UBT2)
# Assay: SAE HTRF enzyme assay
# Assay type: biochemical
# Conditions: for inhibition at 0.111 µM: read-out: Percent Inhibition
# Method in brief: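 0.11 nM SAE incubated with 0.5 μM ATP, 0.01 μM Ubc9-GST and 0.125 μM Sumo-Flag in HEPES pH 7.5, MgCl2, GSH, BSA, ±inhibitor, 105 min at 24° C. EDTA stop; Eu-cryptate anti-Flag/XL-APC anti-GST HTRF read after 2 h. Values given as single-concentration % inhibition or IC50.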
# [1] = SAE inhibition at compound concentration 0.111 μM
# [2] = SAE inhibition, class symbols, legend in nM
# Chain of recombinant human SAE enzyme (Q9UBT2 whole entry): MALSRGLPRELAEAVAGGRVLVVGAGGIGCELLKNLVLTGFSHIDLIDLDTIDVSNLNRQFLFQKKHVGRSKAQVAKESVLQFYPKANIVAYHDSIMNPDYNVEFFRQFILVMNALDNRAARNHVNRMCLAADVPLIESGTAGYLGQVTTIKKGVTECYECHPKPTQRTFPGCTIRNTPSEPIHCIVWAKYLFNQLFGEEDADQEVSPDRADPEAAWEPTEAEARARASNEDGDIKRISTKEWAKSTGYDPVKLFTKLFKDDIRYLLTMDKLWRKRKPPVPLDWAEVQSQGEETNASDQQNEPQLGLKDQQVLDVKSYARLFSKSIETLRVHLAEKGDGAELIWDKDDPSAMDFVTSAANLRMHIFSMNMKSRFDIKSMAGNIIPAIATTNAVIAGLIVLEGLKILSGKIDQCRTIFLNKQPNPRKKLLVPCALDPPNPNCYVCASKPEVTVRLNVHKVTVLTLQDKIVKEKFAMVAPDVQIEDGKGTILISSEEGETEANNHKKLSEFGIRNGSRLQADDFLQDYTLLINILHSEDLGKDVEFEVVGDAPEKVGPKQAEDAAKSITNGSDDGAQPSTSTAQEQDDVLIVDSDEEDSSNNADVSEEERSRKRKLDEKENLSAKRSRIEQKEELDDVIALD
# Chain of recombinant human SAE enzyme (Q9UBE0 whole entry partner): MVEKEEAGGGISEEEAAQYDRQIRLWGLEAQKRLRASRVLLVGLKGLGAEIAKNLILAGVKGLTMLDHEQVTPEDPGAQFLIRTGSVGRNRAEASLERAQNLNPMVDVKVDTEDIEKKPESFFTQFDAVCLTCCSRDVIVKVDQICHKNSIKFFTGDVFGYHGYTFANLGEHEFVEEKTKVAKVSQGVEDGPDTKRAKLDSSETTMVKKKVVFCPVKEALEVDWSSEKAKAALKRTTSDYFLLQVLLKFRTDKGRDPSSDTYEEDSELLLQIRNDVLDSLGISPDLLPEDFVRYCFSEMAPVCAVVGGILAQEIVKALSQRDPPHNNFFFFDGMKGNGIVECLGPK
smiles,measurement,setting,value
"C[C@H](O)c1cc(C(=O)c2cncnc2N[C@@H]2C[C@H](COS(N)(=O)=O)[C@@H](O)C2)sc1Cl (mixture of isomers) [I-226, [(1R,2S,4R)-4-{[5-({5-Chloro-4-[(1S)-1-hydroxyethyl]-2-thienyl}carbonyl)pyrimidin-4-yl]amino}-2-hydroxycyclopentyl]methyl sulfamate and [(1R,2S,4R)-4-{[5-({5-Chloro-4-[(1R)-1-hydroxyethyl]-2-thienyl}carbonyl)pyrimidin-4-yl]amino}-2-hydroxycyclopentyl]methyl sulfamate]",Percent Inhibition,Concentration 0.111 μM,33
same,IC50,class symbols A/B/C,100 to 1000 nM
"NS(=O)(=O)OC[C@H]1C[C@@H](Nc2ncncc2C(=O)c2ccc(-c3ccccc3Cl)o2)[C@H](O)[C@@H]1O [I-158, [(1R,2R,3S,4R)-4-({5-[5-(2-chlorophenyl)-2-furoyl]pyrimidin-4-yl}amino)-2,3-dihydroxycyclopentyl]methyl sulfamate]",inhibition at 0.111 µM,Concentration 0.111 μM,86%
"CC(C)(O)c1ccc(C(=O)c2cncnc2N[C@@H]2C[C@H](COS(N)(=O)=O)[C@@H](O)C2)s1 [I-235, {(1R,2S,4R)-2-hydroxy-4-[(5-{[5-(2-hydroxypropan-2-yl)-2-thienyl]carbonyl}pyrimidin-4-yl)amino]cyclopentyl}methyl sulfamate]",inhibition at 0.111 µM,Concentration 0.111 μM,22%
same,IC50,class symbols A/B/C,100 to 1000 nM
"NS(=O)(=O)OC[C@H]1C[C@@H](Nc2ncncc2C(=O)c2cc([C@]3(c4cccc(Cl)c4)CCO3)c(Cl)s2)C[C@@H]1O (mixture of isomers) [I-67, [(1R,2S,4R)-4-{[5-({5-chloro-4-[(2R)-2-(3-chlorophenyl)oxetan-2-yl]-2-thienyl}carbonyl)pyrimidin-4-yl]amino}-2-hydroxycyclopentyl]methyl sulfamate and [(1R,2S,4R)-4-{[5-({5-chloro-4-[(2S)-2-(3-chlorophenyl)oxetan-2-yl]-2-thienyl}carbonyl)pyrimidin-4-yl]amino}-2-hydroxycyclopentyl]methyl sulfamate]",Percent Inhibition,Concentration 0.111 μM,99
same,IC50,class symbols A/B/C,< 10 nM
"NS(=O)(=O)OC[C@H]1C[C@@H](Nc2ncncc2C(=O)c2cc(Cc3cccc(Cl)c3)c(F)s2)C[C@@H]1O [I-89, {(1R,2S,4R)-4-[(5-{[4-(3-chlorobenzyl)-5-fluoro-2-thienyl]carbonyl}pyrimidin-4-yl)amino]-2-hydroxycyclopentyl}methyl sulfamate]",inhibition at 0.111 µM,Concentration 0.111 μM,98%
same,IC50,class symbols A/B/C,< 10 nM
"NS(=O)(=O)OC[C@H]1C[C@@H](Nc2ncncc2C(=O)c2cc([C@@H]3OCCc4cc(F)c(F)cc43)c(Cl)s2)C[C@@H]1O (single isomer, unassigned) [I-290a, [(1R,2S,4R)-4-{[5-({5-chloro-4-[(1R)-6,7-difluoro-3,4-dihydro-1H-isochromen-1-yl]-2-thienyl}carbonyl)pyrimidin-4-yl]amino}-2-hydroxycyclopentyl]methyl sulfamate or [(1R,2S,4R)-4-{[5-({5-chloro-4-[(1S)-6,7-difluoro-3,4-dihydro-1H-isochromen-1-yl]-2-thienyl}carbonyl)pyrimidin-4-yl]amino}-2-hydroxycyclopentyl]methyl sulfamate]",Percent Inhibition,[1],62%
same,IC50,[2],10 to 100 nM
"NS(=O)(=O)OC[C@H]1C[C@@H](Nc2ncncc2C(=O)c2cc([C@@H]3OCCc4cccnc43)c(Cl)s2)C[C@@H]1O (single isomer, unassigned) [I-266b, [(1R,2S,4R)-4-{[5-({5-chloro-4-[(8S)-5,8-dihydro-6H-pyrano[3,4-b]pyridin-8-yl]-2-thienyl}carbonyl)pyrimidin-4-yl]amino}-2-hydroxycyclopentyl]methyl sulfamate or [(1R,2S,4R)-4-{[5-({5-chloro-4-[(8R)-5,8-dihydro-6H-pyrano[3,4-b]pyridin-8-yl]-2-thienyl}carbonyl)pyrimidin-4-yl]amino}-2-hydroxycyclopentyl]methyl sulfamate]",Percent Inhibition,Concentration 0.111 μM,100
same,IC50,class symbols A/B/C,< 10 nM
"CO[C@H](c1cccc(Cl)c1)c1cc(C(=O)c2cncnc2N[C@@H]2C[C@H](COS(N)(=O)=O)[C@@H](O)C2)sc1Cl (mixture of isomers) [I-90, [(1R,2S,4R)-4-{[5-({5-chloro-4-[(R)-(3-chlorophenyl)(methoxy)methyl]-2-thienyl}carbonyl)pyrimidin-4-yl]amino}-2-hydroxycyclopentyl]methyl sulfamate and [(1R,2S,4R)-4-{[5-({5-chloro-4-[(S)-(3-chlorophenyl)(methoxy)methyl]-2-thienyl}carbonyl)pyrimidin-4-yl]amino}-2-hydroxycyclopentyl]methyl sulfamate]",Percent Inhibition,Concentration 0.111 μM,97
same,IC50,class symbols A/B/C,< 10 nM
"Cc1oc(C(=O)c2cncnc2N[C@@H]2C[C@H](COS(N)(=O)=O)[C@@H](O)C2)cc1Cc1cccc(Cl)c1 [I-33, [(1R,2S,4R)-4-({5-[4-(3-chlorobenzyl)-5-methyl-2-furoyl]pyrimidin-4-yl}amino)-2-hydroxycyclopentyl]methyl sulfamate]",inhibition at 0.111 µM,Concentration 0.111 μM,100%
same,IC50,class symbols A/B/C,< 10 nM
"NS(=O)(=O)OC[C@H]1C[C@@H](Nc2ncncc2C(=O)c2cc([C@@H]3NCCc4ccccc43)cs2)C[C@@H]1O (single isomer, unassigned) [I-283a, [(1R,2S,4R)-2-hydroxy-4-{[5-({4-[(1R)-1,2,3,4-tetrahydroisoquinolin-1-yl]-2-thienyl}carbonyl)pyrimidin-4-yl]amino}cyclopentyl]methyl sulfamate or [(1R,2S,4R)-2-hydroxy-4-{[5-({4-[(1S)-1,2,3,4-tetrahydroisoquinolin-1-yl]-2-thienyl}carbonyl)pyrimidin-4-yl]amino}cyclopentyl]methyl sulfamate]",Percent Inhibition,[1],99%
same,IC50,[2],< 10 nM
"Cc1sc(C(=O)c2cncnc2N[C@@H]2C[C@H](COS(N)(=O)=O)[C@@H](O)C2)cc1[C@@H]1OCCc2oc(Cl)cc21 (mixture of isomers) [I-298, [(1R,2S,4R)-4-{[5-({4-[(4R)-2-chloro-6,7-dihydro-4H-furo[3,2-c]pyran-4-yl]-5-methyl-2-thienyl}carbonyl)pyrimidin-4-yl]amino}-2-hydroxycyclopentyl]methyl sulfamate and [(1R,2S,4R)-4-{[5-({4-[(4S)-2-chloro-6,7-dihydro-4H-furo[3,2-c]pyran-4-yl]-5-methyl-2-thienyl}carbonyl)pyrimidin-4-yl]amino}-2-hydroxycyclopentyl]methyl sulfamate]",Percent Inhibition,[1],96%
same,IC50,[2],< 10 nM
"NS(=O)(=O)OC[C@H]1C[C@@H](Nc2ncncc2C(=O)c2cc(Cc3cccc(Cl)c3)cs2)C[C@@H]1O [I-43, {(1R,2S,4R)-4-[(5-{[4-(3-chlorobenzyl)-2-thienyl]carbonyl}pyrimidin-4-yl)amino]-2-hydroxycyclopentyl}methyl sulfamate]",inhibition at 0.111 µM,Concentration 0.111 μM,99%
"CN(C)[C@H](c1cccc(Cl)c1)c1csc(C(=O)c2cncnc2N[C@@H]2C[C@H](COS(N)(=O)=O)[C@@H](O)C2)c1 (single isomer, unassigned) [I-153a, [(1R,2S,4R)-4-{[5-({4-[(R)-(3-chlorophenyl)(dimethylamino)methyl]-2-thienyl}carbonyl)pyrimidin-4-yl]amino}-2-hydroxycyclopentyl]methyl sulfamate or [(1R,2S,4R)-4-{[5-({4-[(S)-(3-chlorophenyl)(dimethylamino)methyl]-2-thienyl}carbonyl)pyrimidin-4-yl]amino}-2-hydroxycyclopentyl]methyl sulfamate]",Percent Inhibition,Concentration 0.111 μM,30
same,IC50,class symbols A/B/C,100 to 1000 nM
"CCOc1ccccc1OCc1csc(C(=O)c2cncnc2N[C@@H]2C[C@H](COS(N)(=O)=O)[C@@H](O)C2)c1 [I-156, [(1R,2S,4R)-4-{[5-({4-[(2-ethoxyphenoxy)methyl]-2-thienyl}carbonyl)pyrimidin-4-yl]amino}-2-hydroxycyclopentyl]methyl sulfamate]",inhibition at 0.111 µM,Concentration 0.111 μM,92%
same,IC50,class symbols A/B/C,< 10 nM
"CO[C@H](c1cccc(Cl)c1)c1cc(C(=O)c2cncnc2N[C@@H]2C[C@H](COS(N)(=O)=O)[C@@H](O)C2)sc1Cl (single isomer, unassigned) [I-90b, [(1R,2S,4R)-4-{[5-({5-chloro-4-[(R)-(3-chlorophenyl)(methoxy)methyl]-2-thienyl}carbonyl)pyrimidin-4-yl]amino}-2-hydroxycyclopentyl]methyl sulfamate or [(1R,2S,4R)-4-{[5-({5-chloro-4-[(S)-(3-chlorophenyl)(methoxy)methyl]-2-thienyl}carbonyl)pyrimidin-4-yl]amino}-2-hydroxycyclopentyl]methyl sulfamate]",Percent Inhibition,Concentration 0.111 μM,92
same,IC50,class symbols A/B/C,10 to 100 nM
"NS(=O)(=O)OC[C@H]1C[C@@H](Nc2ncncc2C(=O)c2cc([C@@H]3OCC(=O)c4ccccc43)cs2)C[C@@H]1O (mixture of isomers) [I-342, [(1R,2S,4R)-2-hydroxy-4-{[5-({4-[(1R)-4-oxo-3,4-dihydro-1H-isochromen-1-yl]-2-thienyl}carbonyl)pyrimidin-4-yl]amino}cyclopentyl]methyl sulfamate and [(1R,2S,4R)-2-hydroxy-4-{[5-({4-[(1S)-4-oxo-3,4-dihydro-1H-isochromen-1-yl]-2-thienyl}carbonyl)pyrimidin-4-yl]amino}cyclopentyl]methyl sulfamate]",Percent Inhibition,[1],93%
same,IC50,[2],< 10 nM
"NS(=O)(=O)OC[C@H]1C[C@@H](Nc2ncncc2C(=O)c2cc(Cn3ccc4ccc(C(F)(F)F)cc43)cs2)C[C@@H]1O [I-184, [(1R,2S,4R)-2-hydroxy-4-({5-[(4-{[6-(trifluoromethyl)-1H-indol-1-yl]methyl}-2-thienyl)carbonyl]pyrimidin-4-yl}amino)cyclopentyl]methyl sulfamate]",inhibition at 0.111 µM,Concentration 0.111 μM,85%
same,IC50,class symbols A/B/C,10 to 100 nM
